Source: PMC10825133, “Repurposing proteasome inhibitors for improved treatment of triple-negative breast cancer” (Cell Death Discovery, 2024)

Legend:
[1] = test system: CAL-148 cells; experiment: Resazurin-based cell viability assay, monotherapy drug screen; parameters: species or system human; AUC: unit not given beside the values; conditions: CAL-148; for AUC: area under the dose response curve, 24 h; for GRmax: drug efficacy at highest tested dose (<0 cytotoxic, 0 cytostatic, >0 partial growth inhibition)
Protocol: (§1) Eighteen pharmaceutical compounds were purchased from Selleckchem (Supplementary Table 2). Stock solutions were prepared using dimethyl sulfoxide (DMSO; Merck), physiological saline (sodium chloride 0.9%) or Milli-Q water, and stored at −80 °C. […] Matched concentration solvent vehicle controls were used for each drug concentration. The drug screens were performed in triplicate and repeated three (monotherapy) or two (combination therapy) times (Fig. 7).
(§2) The optimal seeding density per 96-well was determined for each cell line as previously described. The cells were seeded at a density of 4.0 × 10^3 to 7.5 × 10^3 (cell type dependent) in 96-well clear, flat-bottom microplates (Corning Life Sciences, Sigma-Aldrich) in 100 µl complete culture medium (Supplementary Table 1) and cultured for 24 h. Cell viability was determined using the resazurin assay in untreated cells at the time of plating (t = 0) and treated cells after 24 h drug treatment (Fig. 7). Percentage cell viability was calculated as 100% × (absorbance of treated cells – absorbance of background controls) / (absorbance of matched solvent vehicle controls – absorbance of background controls). The area under the curve (AUC), half-maximal inhibitory concentration (IC50), drug potency (GR50), and drug efficacy (GRmax) were determined for each compound using the GRmetrics (version 1.20.0) package in R. The monotherapy data were evaluated with the IDACombo (version 1.0.2) package in R to predict potential drug combinations (Table 1). SynergyFinder (version 3.2.10) package in R was used to identify synergistic drug combinations.
(§3) Eighteen pharmaceutical compounds were purchased from Selleckchem. […] The solubility of the compound was enhanced by pre-heating the solvent (lukewarm), if necessary. […] The stock solutions were stored at -80°C. […] Matched concentration solvent vehicle controls were used for each drug concentration. The drug screens were performed in triplicate and repeated three times for the monotherapies and twice for the combination treatments. The drug(s) and corresponding controls were plated in 96-well PCR plates (VWR) and stored at -20°C (Fig. 6). The drug plates were thawed, centrifuged (3000 rpm for 30s), and acclimatized to RT before the drugs were added to the cells. New drug plates were prepared for each drug screen.
Cell viability was measured daily (day 0 [plating day] to day 4) using 0.2 mg/ml resazurin solution prepared from resazurin sodium salt (Fisher Scientific) dissolved in sterile 1xPBS (ThermoFisher Scientific). Before use, the resazurin solution was brought to RT before 10 µl (10% of cell medium volume) was added to each 96-well and incubated for 4h at 37°C. […] The slope of the curve was used to determine the optimal seeding density, i.e., the highest seeding density with linear growth between days 1 and 3.
(§4) The cells were seeded at a density of 4.0x10^3 to 7.5x10^3 (cell type-dependent) in 96-well clear, flat-bottom microplates (Corning Life Sciences, Sigma-Aldrich) in 100 µl culture medium supplemented with 10% FBS and cultured for 24h. Cell viability was determined using the resazurin assay after 24h drug treatment (Fig. 6). Percentage cell viability was calculated as 100% × (absorbance of treated cells – absorbance of background controls) / (absorbance of matched solvent vehicle controls – absorbance of background controls). Normalized growth rate inhibition (GR) was assessed using the absorbance of untreated cells after the time of plating (t = 0). […] For combination treatment, the monotherapy data were evaluated with the IDACombo (version 1.0.2)[20] package in R to predict potential drug combinations (Table 1). SynergyFinder (version 3.2.10)[21] package in R was used to identify synergistic drug combinations.

[2] = test system: eight TNBC cell lines (BT-549, CAL-148, HCC1806, HCC38, HCC70, MDA-MB-436, MDA-MB-453, MDA-MB-468); experiment: Monotherapy drug screen, mean across the TNBC cell lines
Protocol: as §1, §2, §3, §4

[3] = test system: MCF-10A cells; experiment: Resazurin-based cell viability assay, monotherapy drug screen; parameters: species or system human; AUC: scale not given here; conditions: for AUC: area under the dose response curve, 24 h; for GRmax: drug efficacy at highest tested dose (<0 cytotoxic, 0 cytostatic, >0 partial growth inhibition)
Protocol: (§5) Eighteen pharmaceutical compounds were purchased from Selleckchem. […] The stock solutions were stored at -80°C. […] New drug plates were prepared for each drug screen.
(§6) To determine the optimal seeding density and ensure that the cells were in the exponential phase during the duration of the experiment (approx. 52h), each cell line (BT-549, CAL-148, HCC1806, HCC38, HCC70, MCF-10A, MCF-7, MDA-MB-436, MDA-MB-453, and MDA-MB-468) was seeded at different concentrations (1000 to 16000 cells) per 96-well, as previously described. Cell viability was measured daily (day 0 [plating day] to day 4) using 0.2 mg/ml resazurin solution prepared from resazurin sodium salt (Fisher Scientific) dissolved in sterile 1xPBS (ThermoFisher Scientific). Before use, the resazurin solution was brought to RT before 10 µl (10% of cell medium volume) was added to each 96-well and incubated for 4h at 37°C. The absorbance was measured with a 560 nm excitation filter and a 615 nm emission filter in a Wallac 1420 VICTOR2™ microplate reader (Perkin Elmer). The slope of the curve was used to determine the optimal seeding density, i.e., the highest seeding density with linear growth between days 1 and 3.

[4] = test system: MCF-7 cells; experiment: as above; parameters: species or system human; AUC: scale not given here; conditions: MCF-7; for AUC: area under the dose response curve, 24 h; for GRmax: drug efficacy at highest tested dose (<0 cytotoxic, 0 cytostatic, >0 partial growth inhibition)
Protocol: as §5, §6

[5] = test system: MDA-MB-468 cells; experiment: as above; parameters: species or system human; AUC: scale not given here; conditions: MDA-MB-468; for AUC: area under the dose response curve, 24 h; for GRmax: drug efficacy at highest tested dose (<0 cytotoxic, 0 cytostatic, >0 partial growth inhibition)
Protocol: as §5, §6

[6] = test system: BT-549 cells; experiment: as above; parameters: species or system human; AUC: scale not given here; conditions: BT-549; for AUC: area under the dose response curve, 24 h; for GRmax: drug efficacy at highest tested dose (<0 cytotoxic, 0 cytostatic, >0 partial growth inhibition)
Protocol: as §5, §6

[7] = test system: MDA-MB-453 cells; experiment: as above; parameters: species or system human; AUC: scale not given here; conditions: MDA-MB-453; for AUC: area under the dose response curve, 24 h; for GRmax: drug efficacy at highest tested dose (<0 cytotoxic, 0 cytostatic, >0 partial growth inhibition)
Protocol: as §5, §6

[8] = test system: HCC38 cells; experiment: as above; parameters: species or system human; AUC: scale not given here; conditions: HCC38; for AUC: area under the dose response curve, 24 h; for GRmax: drug efficacy at highest tested dose (<0 cytotoxic, 0 cytostatic, >0 partial growth inhibition)
Protocol: as §5, §6

[9] = test system: HCC70 cells; experiment: as above; parameters: species or system human; AUC: scale not given here; conditions: HCC70; for AUC: area under the dose response curve, 24 h; for GRmax: drug efficacy at highest tested dose (<0 cytotoxic, 0 cytostatic, >0 partial growth inhibition)
Protocol: as §5, §6

[10] = test system: HCC1806 cells; experiment: as above; parameters: species or system human; AUC: scale not given here; conditions: HCC1806; for AUC: area under the dose response curve, 24 h; for GRmax: drug efficacy at highest tested dose (<0 cytotoxic, 0 cytostatic, >0 partial growth inhibition)
Protocol: as §5, §6

[11] = test system: MDA-MB-436 cells; experiment: as above; parameters: species or system human; AUC: scale not given here; conditions: MDA-MB-436; for AUC: area under the dose response curve, 24 h; for GRmax: drug efficacy at highest tested dose (<0 cytotoxic, 0 cytostatic, >0 partial growth inhibition)
Protocol: as §5, §6

SMILES	AUC [1]	GRmax [1]	cytotoxic effect at the highest dose [2]	AUC [3]	GRmax [3]	AUC [4]	GRmax [4]	AUC [5]	GRmax [5]	AUC [6]	GRmax [6]	AUC [7]	GRmax [7]	AUC [8]	GRmax [8]	AUC [9]	GRmax [9]	AUC [10]	GRmax [10]	AUC [11]	other results
O=[N+]([O-])c1ccc(S(=O)(=O)N2CCN(c3ccnc4cc(Cl)ccc34)CC2)c([N+](=O)[O-])c1 [VR-23]	1.0	0.95	lowest cytotoxic effects	1.0	1.0	0.98	0.82	0.97	0.74	0.98	0.85	0.99	0.40	1.0	0.95	0.98	0.82	1.0	0.93	1.0	IC50 ([4]; 24 h drug treatment, read-out: IC50): 6 µM; GRmax [11]: 1.0
CCCc1ccc(OCC(=O)N(Cc2nc(-c3cccnc3)no2)C(C)C)cc1 [PI-1840]	1.0	1.0	lowest cytotoxic effects	1.0	1.0	1.0	0.97	0.98	0.96	0.99	1.0	1.0	0.93	1.0	1.0	1.0	1.0	1.0	0.98	1.0	GRmax [11]: 1.0
